Read-outs that look alike come from different tables or passages of the source. Marks after values point to notes of the source that are not given here.
Tests used:
human PBMCs = assay: Proinflammatory cytokine modulation in LPS-stimulated PBMCs; type: cell-based; conditions: PBMC, 200 nM, LPS 100 pg/mL, 24 hours
Method: PBMCs were used to mimic in vivo conditions. […] The cells were then stimulated with LPS (Sigma cat. L2880) at 100 pg/mL in a 37° C. incubator for 24 hours. Culture supernatants were collected to measure the indicated cytokines (Proinflammatory Panel II (human) 4-Plex kits, MSD, K15053D-2).

[1] = tested on: human plasmacytoid dendritic cells (pDCs); assay: Plasmacytoid dendritic cell differentiation assay; type: cell-based; conditions: human PBMCs, IL-3 supplemented media, CpG stimulation
Method: The differentiation of pDC was measured by flow cytometry. The functional effects of the pDC were measured by type I IFN (IFNα) production.

[2] = tested on: oxazolone-induced skin inflammation; assay: Oxazolone-induced contact hypersensitivity in humanized mouse model (HuNOG-EXL); type: in vivo; conditions: Challenge 3, 3 mg/kg SC 1 hour prior to sensitization and each challenge
Method: (§1) Briefly, huNOG-EXL mice were engrafted at 6 weeks of age with human CD34+ hematopoietic stem cells isolated from human cord blood. 20-24 weeks after stem cell administration the mice were assessed for human CD45 engraftment (>25% in blood) and subjected to an oxazolone-induced contact hypersensitivity protocol. […] 24 hours (Day 1) post administration, the mice were anesthetized with 5% isoflurane, their abdomens shaved, and sensitized with 100 μL of 3% oxazolone in ethanol (applied to the shaved area). Mice were dosed again on Day 4, 11, and 16 as above, and challenged with 2% oxazolone in ethanol on both ears (10 μL/side/ear) 48 hours post each dose (Day 6—Challenge 1, Day 13—Challenge 2, and Day 18—Challenge 3). For the GC1 alone group, mice were dosed with 3 mg/kg SC 1 hour prior to sensitization and prior to each challenge. Upon final challenge, mice were euthanized, and ear tissue and the gastrocnemius was collected for analysis of target selective and non-target selective tissue expression of GC regulated genes.

FKBP5 gene expression = assay: GC regulated gene expression in tissues of the contact hypersensitivity model; type: in vivo, mouse; conditions: 3 mg/kg
Method: as §1

Cc1ccc(OCc2cccc(N)c2)c(F)c1[C@H]1O[C@@H]2C[C@H]3[C@@H]4CCC5=CC(=O)C=C[C@]5(C)[C@H]4[C@@H](O)C[C@]3(C)[C@]2(C(=O)CO)O1 (single isomer, unassigned) [GC1]
inhibition at 0.2 µM (human PBMCs; read-out: % Inhibition of human IL-6 secretion at 200 nM): 83.9 ± 2.81%
inhibition at 0.2 µM (human PBMCs; read-out: % Inhibition of human TNFa secretion at 200 nM): 85.1 ± 3.28%
% Inhibition of human IFNα secretion [1]: 97.18 ± 2.95%
% Inhibition of pDC cell differentiation ([1]; flow cytometry): 95.50 ± 8.32%
Δ Ear thickness, Mean [2]: 0.018*^ mm
Fold increase in FKBP5 gene expression compared to Isotype, Gastrocnemius, Mean (FKBP5 gene expression; non-targeted tissue (Gastrocnemius)): 3.958
Fold increase in FKBP5 gene expression compared to Isotype, Ear, Mean (FKBP5 gene expression; targeted tissue (Ear)): 4.505
